Literature values as cited in patent publication US9358210B2, “Sustained-release pellets containing tacrolimus as an active ingredient” (priority 2010, dated 2016).

- solubility in water: 1 to 2 µg/mL
SMILES: C=CC[C@@H]1/C=C(\C)C[C@H](C)C[C@H](OC)[C@H]2O[C@@](O)(C(=O)C(=O)N3CCCC[C@H]3C(=O)O[C@H](/C(C)=C/[C@@H]3CC[C@@H](O)[C@H](OC)C3)[C@H](C)[C@@H](O)CC1=O)[C@H](C)C[C@@H]2OC [tacrolimus, 17-allyl-1,14-dihydroxy-12-[2-(4-hydroxy-3-methoxycyclohexyl)-1-methylvinyl]-23,25-dimethoxy-13,19,21,27-tetramethyl-11,28-dioxa-4-azatricyclo[22.3.1.0]octacos-18-ene-2,3,10,16-tetraone]
